{"source": "patent US20130005718A1", "about": "(priority 2009, published 2013)", "key": {"[1]": {"details": "equivalent ionic conditions; cited from earlier work"}, "[2]": {"system": "PNL-induced thermal hyperalgesia", "assay": "Hind paw withdrawal latency (HPWL) to heat source after PNL", "format": "in vivo, C57 Black/6J mice", "details": "i.p., 15% heat stimulus"}, "mice [3]": {"system": "mice", "assay": "Acute toxicity of 2,6-DTBP (behavior and survival)", "format": "in vivo", "protocol": "(§1) To examine 2,6-DTBP bioavailability, 32 mice received dihydroxy-β-cyclodextrin (DHβCD) solubilized 2,6-DTBP (see below), DHβCD alone or saline by intraperitoneal (i.p.) injection with a dosing schedule as per behavioral testing (see below). 10-60 minutes after receipt of the appropriate final dose, mice were anesthetized with 2.5-3% isoflurane then exsanguinated by venous puncture. Blood concentration of 2,6-DTBP was determined by gas chromatography (see below). To consider toxicity of a high acute therapeutic dose of 2,6-DTBP, some animals received a single bolus of 80 mg/kg. To consider toxicity of an acute hyper-therapeutic dose of 2,6-DTBP, all animals that received three 40 mg/kg therapeutic doses during animal behavior experiments received a 120 mg/kg bolus immediately after the 180 minutes of behavioral testing window, thereby raising the cumulative dose to 240 mg/kg. The general condition of all of these animals was followed by qualitative observation of behavior (grooming and exploration) and survival. All animals were sacrificed within 7 days after receipt of a 2,6-DTBP/DHβCD injection."}, "[4]": {"system": "PNL-induced mechanical allodynia and hyperalgesia", "assay": "Von Frey fiber test after partial sciatic nerve ligation (PNL)", "format": "in vivo, C57 Black/6J mice"}, "[5]": {"format": "in vivo, mice", "protocol": "Samples and standards were prepared as follows.\nFor the standard calibration curve, aliquots of 2,6-DTBP acutely solubilized in DMSO were added to 200 μl of chloroform plus the thymol internal standard (total DMSO addition was 2 μl in all cases). 200 μl of H2O were then added and the samples were processed as described above. In all cases, 2 μl of the chloroform phase was injected for analysis.\nas §1"}, "[6]": {"protocol": "Serial dilutions were then dispersed into the aqueous recording solutions maintaining the DMSO concentration at 0.04% (W/V). […] To this end, appropriate masses of 2,6-DTBP and DHβCD that would yield 6 ml of 1% 2,6-DTBP, in combination with 40% DHβCD, were combined in a Teflon® capped borosilicate vial and heated to 60° C. in a water bath. This temperature is above the melting point of 2,6-DTBP (36° C. (Lorenc et al., 2003) but below that of DHβCD (>200° C. (Loftsson et al., 1996) and is compatible with stability of both reagents (Lorenc et al., 2003; Loftsson et al., 1996 and CAS documentation). After 15 minutes, the molten 2,6-DTBP was intimately mixed with the DHβCD by vigorous vortexing, 200 μl of 60° C. DI H2O added and, following additional vortexing, the vial returned to the water bath for 15-30 minutes. Following addition of 3 more 200 μl aliquots of deionized water (DI H2O), with corresponding incubation and vortexing, the sample was left at 60° C. overnight. The resulting colorless viscous gel was slowly diluted by addition of the required volume of DI H2O adding no more than 200 μl at a time with 15-30 minutes incubation at 60° C. and vortexing after each addition.\nThe injection port and FID were at 280° C. while the column temperature was 210° C. The split ratio was 2:1 while the column flow was 6.96 ml/min with helium (linear velocity 65 cm/s).\nSamples and standards were prepared as follows. To 200 μl of whole blood (drawn following injection of DHβCD or 2,6-DTBP solubilized in DHβCD), 200 μl of chloroform containing 100 nM thymol (Sigma) as internal standard and 2 μl of DMSO were added. Following mixing (vortex for 20 seconds followed by 30 minutes on a rotator) and subsequent centrifugation (5000×g for 10 minutes at 10° C.), the chloroform phase was transferred into a glass gas chromatography vial and washed with an equal volume of 0.5 M NaOH. […] DHβCD was added to the DMSO-solubilized 2,6-DTBP sample and DMSO was added to the DHβCD-solubilized 2,6-DTBP sample so that the final concentrations of DHβCD and DMSO were equivalent. […]"}, "mice [7]": {"system": "mice", "details": "i.v. 80-100 mg/kg; cited from earlier work"}, "[8]": {"details": "variously reported; cited from earlier work"}, "HCN1 channels": {"biological_target": "T1, HCN1 channels (Mus musculus, UniProt O88704)", "T1 construct": "expressed in transfected cells; host or cells: Xenopus oocytes (cRNA injection)", "T1 sequence (O88704 whole entry, canonical isoform)": "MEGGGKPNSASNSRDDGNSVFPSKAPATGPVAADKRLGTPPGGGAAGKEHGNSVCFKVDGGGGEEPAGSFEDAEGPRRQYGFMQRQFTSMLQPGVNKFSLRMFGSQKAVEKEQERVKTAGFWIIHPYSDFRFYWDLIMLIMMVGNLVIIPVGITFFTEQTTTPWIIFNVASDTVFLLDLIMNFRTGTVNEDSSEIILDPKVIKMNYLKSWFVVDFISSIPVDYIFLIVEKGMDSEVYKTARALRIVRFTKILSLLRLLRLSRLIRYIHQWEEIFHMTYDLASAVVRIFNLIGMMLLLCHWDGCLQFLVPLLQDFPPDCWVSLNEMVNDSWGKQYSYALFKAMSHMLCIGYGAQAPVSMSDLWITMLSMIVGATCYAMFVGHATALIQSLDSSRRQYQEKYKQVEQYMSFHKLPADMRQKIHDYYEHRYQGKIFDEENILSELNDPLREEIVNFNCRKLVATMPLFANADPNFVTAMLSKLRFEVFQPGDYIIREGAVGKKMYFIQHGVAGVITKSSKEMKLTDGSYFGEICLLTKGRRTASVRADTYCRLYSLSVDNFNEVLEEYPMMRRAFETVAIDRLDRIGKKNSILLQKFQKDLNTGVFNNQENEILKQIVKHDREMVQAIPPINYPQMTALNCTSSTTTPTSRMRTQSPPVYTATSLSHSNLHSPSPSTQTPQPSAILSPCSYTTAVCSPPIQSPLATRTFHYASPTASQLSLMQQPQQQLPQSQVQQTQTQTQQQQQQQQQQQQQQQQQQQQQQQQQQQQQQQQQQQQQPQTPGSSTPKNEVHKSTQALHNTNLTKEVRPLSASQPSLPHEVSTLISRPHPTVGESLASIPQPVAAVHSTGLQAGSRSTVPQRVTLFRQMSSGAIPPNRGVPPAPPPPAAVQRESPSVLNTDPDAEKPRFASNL", "assay": "Two-electrode voltage clamp (TEVC) of HCN1 channel gating in Xenopus oocytes", "format": "cell-based, murine", "details": "for HCN isoform preference (words): HCN1 versus HCN2, 3 or 4"}, "[9]": {"details": "in vivo; cited from earlier work"}, "[10]": {"details": "listed as 2,6-di-tert-butylphenol"}}, "note": "Values joined by “and” are separate entries in the source; they are usually repeats but may differ in a detail not shown here. Identical values can stand only once. “Also recorded” adds a separate entry of the source."}
{"smiles": "CCCCC/C=C\\C/C=C\\C/C=C\\C/C=C\\CCCC(=O)O", "note": "[arachidonic acid]", "values": [{"measurement": "critical micelle concentration", "setting": "[1]", "result": "about 100 μM"}]}
{"smiles": "CC(C)(C)c1cccc(C(C)(C)C)c1O", "note": "[2,6-DTBP, 2,6-di-tert-butylphenol]", "values": [{"measurement": "thermal hyperalgesia, ipsilateral HPWL (words)", "setting": "[2]", "result": "ameliorates the behavioral consequences of PNL-induced hyperalgesia; also recorded: selectively ameliorates PNL-induced thermal hyperalgesia"}, {"measurement": "thermal nociception, contralateral HPWL", "setting": "[2]", "result": "without significantly altering nociceptive behavior"}, {"measurement": "thermal hyperalgesia, ipsilateral HPWL (words)", "setting": "[2]; [10]", "result": "significantly relieve the neuropathic behavior"}, {"measurement": "tolerability of single bolus dose", "setting": "mice [3]; 80 mg/kg i.p., four mice, seven day observation", "result": "all mice tolerated this dose well"}, {"measurement": "tolerability of final bolus", "setting": "mice [3]; 120 mg/kg bolus after three 40 mg/kg doses, cumulative 240 mg/kg i.p.", "result": "not well tolerated"}, {"measurement": "LD75", "setting": "mice [3]; acute i.p. dose", "result": "~240", "unit": "mg/kg"}, {"measurement": "window in which remaining animals died", "setting": "mice [3]; cumulative 240 mg/kg i.p.", "result": "14 to 18", "unit": "h"}, {"measurement": "therapeutic index", "setting": "mice [3]; i.p.", "result": "3 to 5"}, {"measurement": "mechanical hyperalgesia/allodynia in ipsilateral paw", "setting": "[4]; i.p. cumulative dosing, post-PNL mice", "result": "ameliorates the behavioral consequences of PNL-induced hyperalgesia; also recorded: selectively suppresses PNL-induced mechanical allodynia and hyperalgesia"}, {"measurement": "mechanical threshold, Logit transformation (allodynia, words)", "setting": "[4]; threshold set at PW of 0.1", "result": "restore selectively the mechanical threshold to that observed in the uninjured paw"}, {"measurement": "whole blood concentration indicated from the chromatogram shown", "setting": "[5]; 80 mg/kg i.p. in DHβCD", "result": 3.6, "unit": "µM"}, {"measurement": "total concentration in whole blood (mean)", "setting": "[5]; 80 mg/kg i.p. in DHβCD, n=6", "result": 10.6, "unit": "µM"}, {"measurement": "estimated free serum concentration", "setting": "[5]; analgesic dose of 40-120 mg/kg i.p.", "result": "0.2 to 0.6", "unit": "µM"}, {"measurement": "expected free concentration", "setting": "[5]; from total blood concentration after 80 mg/kg i.p.", "result": "0.1 to 0.5", "unit": "µM"}, {"measurement": "concentration solubilized in carrier solution", "setting": "[6]", "result": "1 % (W/V)"}, {"measurement": "solubilization in intralipid emulsion", "setting": "[6]", "result": "unsuccessful"}, {"measurement": "storage stability of the solution", "setting": "[6]", "result": "no phase separation or derivative precipitation"}, {"measurement": "tolerability of acute intravenous exposure", "setting": "mice [7]", "result": "well tolerated"}, {"measurement": "aqueous solubility limit", "setting": "[8]", "result": "20 to 200", "unit": "µM"}, {"measurement": "HCN1 antagonism", "setting": "HCN1 channels", "result": "strongest potency and highest efficacy of the four derivatives"}, {"measurement": "mean V1/2 of HCN1 activation", "setting": "HCN1 channels; 10 μM, n=6", "result": "−88.3", "unit": "mV"}, {"measurement": "mean slope of HCN1 activation", "setting": "HCN1 channels; 10 μM, n=6", "result": 9.6, "unit": "mV"}, {"measurement": "V1/2 of HCN1 activation (Boltzmann fit, cell shown in FIG. 3A)", "setting": "HCN1 channels; 10 μM, single cell", "result": "−90.8", "unit": "mV"}, {"measurement": "slope of HCN1 activation (Boltzmann fit, cell shown in FIG. 3A)", "setting": "HCN1 channels; 10 μM, single cell", "result": 9.7, "unit": "mV"}, {"measurement": "post incubation maximal current relative to pre incubation current", "setting": "HCN1 channels; 20 μM, n=6, difference to control not significant", "result": 108, "unit": "%"}, {"measurement": "HCN1 ΔV1/2 after 20-minute incubation", "setting": "HCN1 channels; 20 μM, solubilized in DHβCD, n=6", "result": "−27.7", "unit": "mV"}, {"measurement": "HCN1 ΔV1/2 after 20-minute incubation", "setting": "HCN1 channels; 20 μM, solubilized in DMSO, n=6", "result": "−31.9", "unit": "mV"}, {"measurement": "EC50", "setting": "HCN1 channels; 20 min incubation, Xenopus oocytes, TEVC, read-out: EC50 for hyperpolarization of V1/2 of HCN1 gating (Hill fit)", "result": "2300 nM and ~2300 nM"}, {"measurement": "HCN isoform preference (words)", "setting": "HCN1 channels", "result": "retains this selectivity profile; also recorded: retains a propofol-like selective efficacy against HCN1 channels"}, {"measurement": "HCN isoform preference (words)", "setting": "HCN1 channels; [10]", "result": "preferentially inhibit HCN1 with little efficacy against HCN2, 3 or 4 channels"}, {"measurement": "apparent stoichiometry h (Hill coefficient)", "setting": "HCN1 channels; Hill fit of dose-response", "result": 1.4}, {"measurement": "maximal efficacy ΔV1/2 of HCN1 gating", "setting": "HCN1 channels; Hill fit of dose-response", "result": "−32", "unit": "mV"}, {"measurement": "anesthetic activity", "setting": "[9]", "result": "total absence of anesthetic efficacy"}]}
